# Assay results as given in ChEMBL document CHEMBL1150071, “Konbamidin, a new indole alkaloid from the Okinawan marine sponge Ircinia sp” (J Nat Prod, 1994).
# Test system: HeLa
# Assay: Cytotoxicity against human HeLa cells
# Type: functional, cell-based
compound,measurement,value
O=C(O)CN[C@H](Cc1c[nH]c2ccccc12)C(=O)O [KONBAMIDIN],IC50,5.4 µg/mL
